The source of these data is US20230158000A1, “PHARMACEUTICAL COMPOSITION FOR TREATING OR PREVENTING VIRAL HEPATITIS AND THE USE THEREOF” (Holy Haid Lab Corp, priority 2020, published 2023).

Data set [1] has as its system HBV DNA of HepG2-NTCP cells. Put plainly: In vitro anti-HBV activity in HepG2-NTCP cells: HBV DNA in culture supernatant by qPCR. The format is cell-based. On the procedure: (§1) On day 0, HepG2-NTCP cells were plated into 48-well plates (7.5×10^4 cells/well). On day 1, change to medium containing 2% DMSO.
(§2) On day 2, the cells were pretreated by adding compounds for 1 hour, and then HepG2-NTCP cells were infected by the addition of […] (compounds were added simultaneously). The test compound was diluted to three concentrations for single treatment, one concentration for combined treatment. Testing in duplicate. The control compound is ETV. See Table 2 for compound concentrations.
(§3) On days 3, 5 and 7, the medium was replaced with fresh medium containing compounds.
(§4) On the ninth day, the supernatant was collected, which was then detected by ELISA for levels of HBeAg and HbsAg, and by qPCR for level of HBV DNA. Meanwhile, detecting cell viability by CellTiter-Glo. Collecting cells for cryopreservation (for spare).
1) Detecting the level of HBV DNA in cell culture supernatant by qPCR
According to the instructions of QIAamp 96 DNA Blood Kit, extracting DNA from cell culture supernatant. The level of HBV DNA was detected by qPCR with HBV-specific primers. PCR reaction: 95° C., 10 min; 95° C., 15 sec, 60° C., 1 min, 40 cycles.
Inhibition rate of HBV DNA (%)=(1-HBV copy number of sample compound group/HBV copy number of DMSO group)×100%

Data set [2] has as its system HBsAg of HepG2-NTCP cells. Put plainly: In vitro anti-HBV activity in HepG2-NTCP cells: HBsAg in culture supernatant by ELISA. The format is cell-based. On the procedure: as §1, §2, §3, §4
(§5) 2) Detecting the levels of HBeAg and HBsAg in cell culture supernatant by ELISA. The test was performed in accordance with the instructions of the kit, and was briefly described as follows:
(§6) Taking respective 50 μl of standard, sample and control compound, and adding to the detection plate, then adding 50 μl of enzyme conjugate to each well, incubating at 37° C. for 60 minutes, washing the plate with washing solution, blotting dry, then adding 50 μl of premixed luminescent substrate, and incubating at room temperature in the dark for 10 minutes, and finally measuring luminescence values by a microplate reader.
(§7) Inhibition rate of Hbe/sAg (%)=(1-HBe/sAg level of sample compound/HBe/sAg level of DMSO control group)×100%

The subject of data set [3] is HBeAg in HepG2-NTCP cells. Put plainly: microbe, parasite or virus in culture. The data set is classed as cell-based, HBV. As to the method: as §1, §2, §3, §4, §5, §6, §7
Data set [4] has as its system HBeAg and HBsAg. Particulars: as reported in the literature; cited from earlier work.
Data set [5] relates to HepG2-NTCP cells. Put plainly: Cell viability assay by CellTiter-Glo. The data set is classed as cell-based. The note with it: different concentrations, FIG. 7. As to the method: as §4
3) Cell Viability Assay by CellTiter-Glo Cell
The cell viability was determined according to the instructions of the CellTiter-Glo kit. The assay is briefly described as follows: Collecting the cell culture supernatant, adding CellTiter-Glo (1:1 dilution of medium) to each well, incubating at room temperature for 10 minutes, and measuring luminescence values with a microplate reader.

The subject of data set [6] is AAV-HBV mouse models. Put plainly: In vivo experiments in AAV-HBV mouse models: plasma HBV DNA, HBsAg, HBeAg. Particulars: AAV-HBV mice, 60mpk by gavage once a day, 90-day period of administration. On the procedure: Experimental method: AAV-HBV mouse models were administered by gavage, once a day; the compound group (G10 HD042, i.e., celecoxib): the dose of celecoxib was 60mpk; and the blank group (G1 vehicle control group): 10% DMSO+40% PEG400+5% Tween 80+45% Saline (V/V) solution.
During the 90-day period of administration, blood was collected on the 6th, 13th, 20th, 27th, 34th, 41st, 48th, 55th, 62nd, 69th, […], 83rd, and 90th days, respectively, and the plasma levels of HBV DNA, HBsAg, HBeAg and anti-HBs were tested with the results shown in FIGS. 4 to 5.

For data set [7], the system named is hepatitis B virus (HBV). Particulars: compared with TDF; cited from earlier work.
For data set [8] the following is noted: compared with TDF; cited from earlier work.
The mark [9] stands for this setting: Hepatitis B virus, 216 h, read-out: HBsAg inhibition rate.
Setting [10] is: Hepatitis B virus, 216 h, read-out: HBeAg inhibition rate.
Setting [11] is: repeated parallel experiments, FIG. 6.

Turning to `C=C1C(CO)C(O)CC1n1cnc2c(=O)nc(N)[nH]c21` [ETV, 2-amino-1,9-dihydro-9-[(1S,3R,4S)-4-hydroxy-3-(hydroxymethyl)-2-methylenecyclopentane]-6H-purin-6-one], the inhibition at 0.0001 µM in data set [1] (Hepatitis B virus, 216 h, 0.1 nM ETV, HepG2-NTCP cells, supernatant day 9, read-out: HBV DNA inhibition rate) was 44.7%; in data set [2] (setting [9]), 1.22%; in data set [3] (setting [10]), -1.35%. For the same compound, in data set [4], the “effect on reducing HBeAg and HBsAg” value was “little effect”.

As to `Cc1ccc(-c2cc(C(F)(F)F)nn2-c2ccc(S(N)(=O)=O)cc2)cc1` [compound of formula 1, celecoxib], the inhibition at 1 µM in data set [1] (Hepatitis B virus, 216 h, 1 μM compound of formula 1, HepG2-NTCP cells, supernatant day 9, read-out: HBV DNA inhibition rate) turned out to be 7.59%. Moreover, in data set [1] (Hepatitis B virus, 216 h, 10 μM compound of formula 1, HepG2-NTCP cells, supernatant day 9, read-out: HBV DNA inhibition rate), the inhibition at 10 µM is 49.2%. The inhibition at 20 µM in data set [1] (Hepatitis B virus, 216 h, 20 μM compound of formula 1, HepG2-NTCP cells, supernatant day 9, read-out: HBV DNA inhibition rate) amounted to 73%. For the same compound, in data set [1] (setting [11]), the “inhibitory effect on HBV DNA, repeated cell experiments” value is “significant dose-dependent manner”. In data set [2] (setting [9]), the inhibition at 1 µM stood at 21.5%, the inhibition at 10 µM is -7.65% and the inhibition at 20 µM is 46.1%. In data set [2] (setting [11]), the “inhibitory effect on HBsAg, repeated cell experiments” value was “significant dose-dependent manner”. Also, in data set [3] (setting [10]), the inhibition at 1 µM was determined as 18%, the inhibition at 10 µM is 50.4% and the inhibition at 20 µM came to 78.1%. Moreover, the “inhibitory effect on HBeAg, repeated cell experiments” value in data set [3] (setting [11]) is listed as “significant dose-dependent manner”. In addition, the “cytotoxicity on HepG2-NTCP cells” value in data set [5] is given as “an effect on the virus rather than cytotoxicity”. For the same compound, in data set [6], the “reduction of plasma level of HBV DNA” value is 0.72 Log 10 copy/mL, the “reduction of plasma level of HBeAg” value was 0.34 Log 10 PEIU/mL and the “reduction of plasma level of HBsAg” value worked out at 0.76 Log 10 IU/mL.

`CC(C)OC(=O)[C@H](C)N[P@](=O)(CO[C@H](C)Cn1cnc2c(N)ncnc21)Oc1ccccc1` [Tenofovir alafenamide, Tenofovir Alafenamide]: the “antiviral activity relative to tenofovir disoproxil TDF” value in data set [7] is 10 times. For the same compound, in data set [8], the “half-life relative to tenofovir disoproxil TDF” value is 225 times and the “stability in plasma relative to tenofovir disoproxil TDF” value is recorded as 200 times.
